Legend:
human p38α = human p38α (Homo sapiens (Human), UniProt Q16539); assay: Purified and activated recombinant human p38α HTRF assay; assay type: biochemical; settings: 50 μM ATP, read-out: p38a IC50
Method: Purified and Activated Recombinant Human p38α Assay
Kinase reaction buffer for p38α HTRF assays consists of 50 mM Tris-pH 7.5, 5 mM MgCl2, 0.1 mg/mL BSA, 100 μM Na3VO4 and 0.5 mM DTT.
HTRF detection buffer contains 100 mM HEPES-pH 7.5, 100 mM NaCl, 0.1% BSA, 0.05% Tween-20, and 10 mM EDTA.
Serial Dilution of Compounds:
Compounds were dissolved in 100% DMSO and serially diluted (3 fold, 10 point) in a polypropylene 96-well microtiter plate (drug plate). The final starting concentration of compounds in the p38α enzymatic assays was 1 μM. Columns 6 and 12 (HI controls and LO controls respectively) in the drug plate were reserved as controls and contained only DMSO.
The p38α kinase reactions were carried out in a polypropylene 96-well black round bottom assay plate in total volume of 30 μL kinase reaction buffer. Appropriate concentration of purified and activated enzyme (recombinant human) was mixed with indicated concentration of ATP and 100 nM GST-ATF2-Avitag, in the presence or absence (HI control) of Compound. See table below for actual concentrations. In the absence of substrate, the background was measured as LO control. The reaction was allowed to incubate for 1 hour at RT.
Assay Reagent Concentrations:
The final reagent concentrations were 1 nM p38α and 50 μM ATP.
After 60 minutes incubation at room temperature, the assay plate was read in a Discovery Plate Reader. The wells were excited with coherent 320 nm light and the ratio of delayed ([…] post excitation) emissions at […] (native europium fluorescence) and 665 nm (europium fluorescence transferred to allophycocyanin—an index of substrate phosphorylation) was determined (Park et al, 1999).
The proportion of substrate phosphorylated in the kinase reaction in the presence of compound compared with that phosphorylated in the presence of DMSO vehicle alone (HI control) was calculated using the formula: % control (POC)=(compound−average LO)/(average HI−average LO)*100. Data (consisting of POC and inhibitor concentration in μM) was fitted to a 4-parameter equation (y=A+((B−A)/(1+((x/C)^D))), where A is the minimum y (POC) value, B is the maximum y (POC), C is the x (compound concentration) at the point of inflection and D is the slope factor, using a Levenburg-Marquardt non-linear regression algorithm.
The inhibition constant (Ki) of the inhibitor was estimated from the IC50 (compound concentration at the point of inflection C) using the Cheng-Prussof equation: Ki=IC50/(1+S/Km), where S is the ATP substrate concentration, and Km is the Michaelis constant for ATP as determined experimentally. All results were expressed as the mean±the standard error of the mean. Data acquisition and non-linear regression algorithms were performed using Activity Base v5.2 and XL-fit software v4.1 respectively. All data was archived using Activity Base v5.2 software.

[1] = system: TNF-α induced IL-8 in human whole blood; assay: Inhibition of TNF-α induced IL-8 in 50% human whole blood; assay type: cell-based; settings: 1 nM TNF-α, secreted IL-8, read-out: WB TNF/IL8 IC50
Method: Inhibition of TNF-α Induced IL-8 in 50% Human Whole Blood
Test compounds were evaluated in vitro for the ability to inhibit the production of secreted IL-8 by whole blood activated with TNF-α. Fresh human whole blood was obtained from healthy, non-medicated volunteers in sodium heparin tubes.
Compound Dilution—Assay Procedure
Test compounds are serially diluted 1:3 in DMSO and then diluted 1:250 into R10 (RPMI 1640, 10% human serum AB, 1× pen/strep/glutamine) to the 4× working concentration to be used in the assay. 100 ul heparinized whole blood is plated into wells of 96 well flat bottom plates. 50 ul of either 4× compound or DMSO control (Final DMSO concentration is 0.1%) are added to the appropriate wells. Plates are incubated for 1 hour at 37 degrees Celsius. 50 ul of 4×TNF-α (4 nM TNF-α, for a final concentration of 1 nM) or control (media alone) is added to the appropriate wells (Total volume=200 ul). Plates are incubated overnight (16-18 hours). 100 ul of supernatant is collected and stored in 96-well round bottom polypropylene plates at −80 degrees Celsius or assayed immediately for IL-8.
Cytokines are measured on antibody (Ab) sandwich ECL based 96-well detection plates. 20 ul of supernatant are added to plate and plate is sealed and shaken at RT for 1 hour. 130 ul of detection Ab cocktail is added and plates are sealed and shaken for 1 hour in the dark at RT. Plates are read on MSD Sector HTS instrument. Data are analyzed and IC50 values generated using Activity Base and Xl-fit programs.

Chain of human p38α (Q16539 whole entry): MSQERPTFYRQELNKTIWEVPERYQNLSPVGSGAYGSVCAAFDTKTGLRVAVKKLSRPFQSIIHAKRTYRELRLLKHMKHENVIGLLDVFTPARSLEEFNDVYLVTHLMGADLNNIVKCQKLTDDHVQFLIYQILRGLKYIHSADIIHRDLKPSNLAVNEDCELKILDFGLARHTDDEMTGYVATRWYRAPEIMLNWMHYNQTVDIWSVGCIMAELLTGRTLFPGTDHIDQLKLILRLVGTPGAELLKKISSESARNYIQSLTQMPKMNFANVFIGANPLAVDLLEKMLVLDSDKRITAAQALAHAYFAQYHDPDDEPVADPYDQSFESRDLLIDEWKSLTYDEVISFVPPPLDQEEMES

IC50 (human p38α)	IC50 [1]	Compound
0.5 nM	2.6 nM	Cc1cc(S(C)(=O)=O)ccc1-c1nncc2nc(Nc3ccc(F)cc3F)ccc12 [Example 7, N-(2,4-difluorophenyl)-5-(2-methyl-4-(methylsulfonyl)phenyl)pyrido[2,3-d]pyridazin-2-amine]
0.9 nM	5.9 nM	Cc1ccccc1-c1nncc2nc(Oc3ccc(F)cc3)ccc12 [Example 19, 2-(4-fluorophenoxy)-5-(2-methylphenyl)pyrido[2,3-d]pyridazine]
7.1 nM	10 nM	Cc1noc(C)c1-c1nncc2nc(Nc3ccc(F)cc3F)ccc12 [Example 15, N-(2,4-difluorophenyl)-5-(3,5-dimethyl-4-isoxazolyl)pyrido[2,3-d]pyridazin-2-amine]
0.9 nM	9 nM	Cc1cc(S(C)(=O)=O)ccc1-c1nncc2nc(Nc3ccc(F)cc3)ccc12 [Example 9, N-(4-fluorophenyl)-5-(2-methyl-4-(methylsulfonyl)phenyl)pyrido[2,3-d]pyridazin-2-amine]
0.7 nM	12 nM	Cc1cc(S(C)(=O)=O)ccc1-c1nncc2nc(Oc3ccc(F)cc3F)ccc12 [Example 17, 2-(2,4-difluorophenoxy)-5-(2-methyl-4-(methylsulfonyl)phenyl)pyrido[2,3-d]pyridazine]
0.3 nM	2.1 nM	Fc1ccc(Nc2ccc3c(-c4ccc(F)cc4F)nncc3n2)c(F)c1 [Example 10, N,5-bis(2,4-difluorophenyl)pyrido[2,3-d]pyridazin-2-amine]
0.2 nM	2.3 nM	Cc1ccccc1-c1nncc2nc(Oc3ccc(F)cc3F)ccc12 [Example 16, 2-(2,4-difluorophenoxy)-5-(2-methylphenyl)pyrido[2,3-d]pyridazine]
5.1 nM	24 nM	Fc1ccc(Oc2ccc3c(-c4cn[nH]c4)nncc3n2)c(F)c1 [Example 18, 2-(2,4-difluorophenoxy)-5-(1H-pyrazol-4-yl)pyrido[2,3-d]pyridazine]
5.6 nM	13 nM	Cn1cc(-c2nncc3nc(Nc4ccc(F)cc4F)ccc23)cn1 [Example 12, N-(2,4-difluorophenyl)-5-(1-methyl-1H-pyrazol-4-yl)pyrido[2,3-d]pyridazin-2-amine]

Further lines, the compound ahead of its results:

Compound	IC50 (human p38α)	IC50 [1]
O=C(c1cccc(-c2nncc3nc(Nc4ccc(F)cc4F)ccc23)c1)N1CCOCC1 [Example 11, N-(2,4-difluorophenyl)-5-(3-(4-morpholinylcarbonyl)phenyl)pyrido[2,3-d]pyridazin-2-amine]	45 nM	79 nM
Cc1ccc(C(N)=O)cc1-c1nncc2nc(Oc3ccc(F)cc3F)ccc12 [Example 5, 3-(2-(2,4-difluorophenoxy)pyrido[2,3-d]pyridazin-5-yl)-4-methylbenzamide]	0.3 nM	1 nM
Cc1ncccc1-c1nncc2nc(Nc3ccc(F)cc3F)ccc12 [Example 8, N-(2,4-difluorophenyl)-5-(2-methyl-3-pyridinyl)pyrido[2,3-d]pyridazin-2-amine]	1.2 nM	2.6 nM
N-(2,4-difluorophenyl)-5-(3,5-dimethyl-1H-pyrazol-4-yl)pyrido[2,3-d]pyridazin-2-amine [Example 2]	1.6 nM	1.8 nM
Cc1n[nH]cc1-c1nncc2nc(Nc3ccc(F)cc3F)ccc12 [Example 14, N-(2,4-difluorophenyl)-5-(3-methyl-1H-pyrazol-4-yl)pyrido[2,3-d]pyridazin-2-amine]	1.1 nM	2.7 nM
Cc1ccccc1-c1nncc2nc(Nc3ccc(F)cc3F)ccc12 [Example 6, N-(2,4-difluorophenyl)-5-(2-methylphenyl)pyrido[2,3-d]pyridazin-2-amine]	0.5 nM	1.1 nM
Cc1cc(F)ccc1Oc1ccc2c(-c3ccccc3C)nncc2n1 [Example 22, 2-(4-fluoro-2-methylphenoxy)-5-(2-methylphenyl)pyrido[2,3-d]pyridazine]	168 nM	620 nM
Fc1ccc(Nc2ccc3c(-c4cn[nH]c4)nncc3n2)c(F)c1 [Example 13, N-(2,4-difluorophenyl)-5-(1H-pyrazol-4-yl)pyrido[2,3-d]pyridazin-2-amine]	3.5 nM	2.3 nM
Cc1cc(F)ccc1Oc1ccc2c(-c3cc(C(N)=O)ccc3C)nncc2n1 [Example 23, 3-(2-(4-fluoro-2-methylphenoxy)pyrido[2,3-d]pyridazin-5-yl)-4-methylbenzamide]	417 nM	1030 nM
Fc1ccc(Nc2ccc3c(N4CCOCC4)nncc3n2)c(F)c1 [Example 3, N-(2,4-difluorophenyl)-5-(4-morpholinyl)pyrido[2,3-d]pyridazin-2-amine]	4 nM	7.6 nM
Cc1ccc(C(N)=O)cc1-c1nncc2nc(Oc3ccc(F)cc3)ccc12 [Example 20, 3-(2-(4-fluorophenoxy)pyrido[2,3-d]pyridazin-5-yl)-4-methylbenzamide]	1.2 nM	3.1 nM
Cc1noc(C)c1-c1nncc2nc(Oc3ccc(F)cc3F)ccc12 [Example 21, 2-(2,4-difluorophenoxy)-5-(3,5-dimethyl-4-isoxazolyl)pyrido[2,3-d]pyridazine]	6.5 nM	43 nM

Source: US8772481B2, “Aza- and diaza-phthalazine compounds as P38 map kinase modulators and methods of use thereof” (Amgen Inc., priority 2008, dated 2014)
